Results published in patent publication US9884126B2, “Anti-wall teichoic antibodies and conjugates” (priority 2013, dated 2018).
Values after ≈ are worked out from the molar mass of the structure shown.

Assays:
[1] = system: MRSA (NRS384 strain of USA300); experiment: MIC determination for extracellular bacteria; type: cell-based; details: Staphylococcus aureus, read-out: Extracellular MRSA MIC
Experimental: Dilutions of the antibiotic were made in quadruplicate in 96 well culture dishes. MRSA (NRS384 strain of USA300) was taken from an exponentially growing culture and diluted to 1×10^4 CFU/mL. Bacteria was cultured in the presence of antibiotic for 18-24 hours with shaking at 37° C. and bacterial growth was determined by reading the Optical Density (OD) at […]. The MIC was determined to be the dose of antibiotic that inhibited bacterial growth by >90%.

MRSA [2] = experiment: Transfer of infection from peritoneal cells to MG63 osteoblasts in the presence of vancomycin; type: cell-based, Staphylococcus aureus; details: 5 μg/mL of vancomycin
Experimental: 6-8 week old female A/J mice (JAX™ Mice, Jackson Laboratories) were infected with 1×10^8 CFU of the NRS384 strain of USA300 by peritoneal injection. The peritoneal wash was harvested 1 day post infection, and the infected peritoneal cells were treated with 50 μg/mL of lysostaphin diluted in Hepes Buffer supplemented with 0.1% BSA (HB buffer) for 30 minutes at 37° C. Peritoneal cells were then washed 2× in ice cold HB buffer. The peritoneal cells were diluted to 1×10^6 cells/mL in RPMI 1640 tissue culture media supplemented with 10 mM Hepes and 10% Fetal Calf Serum, and 5 μg/mL vancomycin. Free MRSA from the primary infection was stored overnight at 4° C. in Phosphate Buffered Saline Solution as a control for extracellular bacteria that were not subject to neutrophil killing.
MG63 osteoblast cell line was obtained from ATCC (CRL-1427) and maintained in RPMI 1640 tissue culture media supplemented with 10 mM Hepes and 10% Fetal Calf Serum (RPMI-10). […] The actual titer for all infections was determined by plating serial dilutions of the bacteria on Tryptic Soy Agar with 5% defibrinated sheep blood.
To generate a pool of intracellular S. aureus, A/J mice were infected with MRSA and infected peritoneal cells were taken 1 day post infection. […] The total number of surviving intracellular bacteria in each well was determined by plating cell lysates on agar plates. […]

USA300 = experiment: Intravenous infection model, pre-treatment in Balb/c mice; type: in vivo; details: antibodies 50 mg/Kg IV 30 minutes prior to infection; vancomycin 110 mg/Kg twice daily; day 4
Experimental: Balb/c mice were given a single dose of vehicle control (PBS) or 50 mg/Kg of antibodies by intravenous injection 30 minutes prior to infection with 2×10^7 CFU of USA300. […] Control mice were given twice daily treatments with 110 mg/Kg of vancomycin by intraperitoneal injection (Vanco). All mice were sacrificed on day 4 post-infection, and the total number of surviving bacteria in kidneys (2 kidneys pooled) was determined by plating.
7 week old female mice were used for all in vivo experiments and infections were carried out by intravenous injection into the tail vein. A/J mice (Jackson Lab) were infected with a dose of 2×10^6 CFU. Balb/c mice (Charles River Laboratories, Hollister, Calif.) were infected with a dose of 2×10^7 CFU. For studies examining the role of competing human IgG (SCID IVIG model), CB17.SCID mice (Charles River Laboratories, Hollister, Calif.) were reconstituted with GammaGard S/D IGIV Immune Globulin (ASD Healthcare, Brooks KY) using a dosing regimen optimized to achieve constant serum levels of >10 mg/mL of human IgG. […] The total number of bacteria recovered per mouse (2 kidneys) was determined by plating serial dilutions of the tissue homogenate in PBS 0.05% Tween on Tryptic Soy Agar with 5% defibrinated sheep blood.

[3] = system: MRSA (NRS384 strain of USA300); experiment: MIC determination / killing of intracellular bacteria in mouse peritoneal macrophages; type: cell-based, Staphylococcus aureus
MRSA (USA300) = experiment: Intravenous infection model in CB17.SCID mice reconstituted with human IgG (SCID:huIgG); type: in vivo
Experimental: To confirm that the AAC would be effective in the presence of competing human antibodies in vivo, the in vivo infection model was modified to generate mice that express normal levels of human IgG in the serum. […] Four days after infection the bacterial load in the kidneys (FIG. 10C) was assessed.
CB17.SCID mice were reconstituted with human IgG using a dosing regimen optimized to yield constant levels of at least 10 mg/mL of human IgG in serum.
Efficacy of the AAC was compared with that of treatment with vancomycin, the current standard of care treatment for MRSA infections. […]
CB17.SCID mice were reconstituted with human IgG using a dosing regimen optimized to yield constant levels of at least 10 mg/mL of human IgG in serum and infected with 2×10^7 CFU of USA300 by intravenous injection. […] The mice were sacrificed on day 4 post infection, and the total number of surviving bacteria in kidneys (2 kidneys pooled, FIG. 21) and heart (FIG. 22) was determined by plating.
7 week old female mice were used for all in vivo experiments and infections were carried out by intravenous injection into the tail vein. […] The total number of bacteria recovered per mouse (2 kidneys) was determined by plating serial dilutions of the tissue homogenate in PBS 0.05% Tween on Tryptic Soy Agar with 5% defibrinated sheep blood.

MRSA [4] = details: TSB; vancomycin 2 and 20 μg/mL, rifampin 0.02 and 0.2 μg/mL

## CN[C@H](CC(C)C)C(=O)N[C@H]1C(=O)N[C@@H](CC(N)=O)C(=O)N[C@H]2C(=O)N[C@H]3C(=O)N[C@H](C(=O)N[C@H](C(=O)O)c4cc(O)cc(O)c4-c4cc3ccc4O)[C@H](O)c3ccc(c(Cl)c3)Oc3cc2cc(c3O[C@@H]2O[C@H](CO)[C@@H](O)[C@H](O)[C@H]2O[C@H]2C[C@](C)(N)[C@H](O)[C@H](C)O2)Oc2ccc(cc2Cl)[C@H]1O [Vancomycin]
[1]
  MIC: 1 µg/mL (≈ 0.69 µM)
MRSA [2]; infected with 3×10^4 intracellular bacteria
  intracellular bacteria recovered from MG63 wells 1 day after infection: 8,750 intracellular bacteria
MRSA [2]; infected with a similar dose of free MRSA
  intracellular bacteria recovered from MG63 wells 1 day post infection: 375 intracellular bacteria
USA300
  effect of pre-treatment on bacterial loads in kidneys: cleared the infection in all of the mice tested
[3]; Staphylococcus aureus, 24 h, MRSA inside mouse peritoneal macrophages, […]
  MIC: > 100 µg/mL
[3]; doses including clinically achieveable serum levels
  killing of intracellular MRSA sequestered inside macrophages: failed to kill
MRSA (USA300); AAC single dose 50 mg/Kg day 1, vancomycin 100 mg/Kg twice daily
  efficacy in SCID:huIgG mice (kidney bacteria day 4): failed to clear the infection
MRSA (USA300); twice-daily 100 mg/Kg, initiated more than 1 day post infection
  reduction of bacterial loads: about 50 fold
MRSA [4]
  bacteria remaining viable during the first two hours of treatment: 90%
  loss in viable bacteria by 5 hours: 100 fold
